Data from ChEMBL document CHEMBL3588842, “Discovery of Selective Small-Molecule Inhibitors for the β-Catenin/T-Cell Factor Protein-Protein Interaction through the Optimization of the Acyl Hydrazone Moiety” (J Med Chem, 2015).
The source made the active and inactive calls. The rule behind the calls is not given here.

Experiments:
[1] = Inhibition of interaction of beta-catenin (unknown origin) transfected in Wnt-activated HEK293 cells/Tcf4 assessed as decrease in transactivation of canonical Wnt signaling by TOPflash luciferase reporter assay; conditions: Homo sapiens
HT-29 = test: cells; conditions: Homo sapiens, HT-29, 72 h
HCT-116 [2] = test: cells; conditions: Homo sapiens, HCT-116, 72 h
SW480 [3] = test: cells; conditions: Homo sapiens, SW480, 72 h
[4] = Inhibition of beta-catenin/Tcf4 interaction in human SW480 cells assessed as decrease in transactivation of canonical Wnt signaling by TOPflash luciferase reporter assay
HCT-116 [5] = test: Cytotoxicity against human HCT116 cells assessed as inhibition of cell growth after 72 hrs by MTS assay
SW480 [6] = test: Cytotoxicity against human SW480 cells assessed as inhibition of cell growth after 72 hrs by MTS assay
HEK293 = test: Inhibition of interaction of beta-catenin (unknown origin) transfected in Wnt-activated HEK293 cells/Tcf4 assessed as decrease in transactivation of canonical Wnt signaling by TOPflash luciferase reporter assay; conditions: Homo sapiens
[7] = test system: beta-catenin R469A mutant/Tcf4 (human); test: Inhibition of human beta-catenin R469A mutant interaction with Tcf4 by fluorescence polarization competitive inhibition assay
Catenin beta-1 [8] = target: T1, Catenin beta-1 (Homo sapiens, UniProt P35222); test: Inhibition of human wild-type beta-catenin (residues 138-686)/C-terminally fluorescein-labeled human APC-R3 (residues 1477-1519) interaction by FP competitive inhibition assay
T1 sequence (P35222 whole entry): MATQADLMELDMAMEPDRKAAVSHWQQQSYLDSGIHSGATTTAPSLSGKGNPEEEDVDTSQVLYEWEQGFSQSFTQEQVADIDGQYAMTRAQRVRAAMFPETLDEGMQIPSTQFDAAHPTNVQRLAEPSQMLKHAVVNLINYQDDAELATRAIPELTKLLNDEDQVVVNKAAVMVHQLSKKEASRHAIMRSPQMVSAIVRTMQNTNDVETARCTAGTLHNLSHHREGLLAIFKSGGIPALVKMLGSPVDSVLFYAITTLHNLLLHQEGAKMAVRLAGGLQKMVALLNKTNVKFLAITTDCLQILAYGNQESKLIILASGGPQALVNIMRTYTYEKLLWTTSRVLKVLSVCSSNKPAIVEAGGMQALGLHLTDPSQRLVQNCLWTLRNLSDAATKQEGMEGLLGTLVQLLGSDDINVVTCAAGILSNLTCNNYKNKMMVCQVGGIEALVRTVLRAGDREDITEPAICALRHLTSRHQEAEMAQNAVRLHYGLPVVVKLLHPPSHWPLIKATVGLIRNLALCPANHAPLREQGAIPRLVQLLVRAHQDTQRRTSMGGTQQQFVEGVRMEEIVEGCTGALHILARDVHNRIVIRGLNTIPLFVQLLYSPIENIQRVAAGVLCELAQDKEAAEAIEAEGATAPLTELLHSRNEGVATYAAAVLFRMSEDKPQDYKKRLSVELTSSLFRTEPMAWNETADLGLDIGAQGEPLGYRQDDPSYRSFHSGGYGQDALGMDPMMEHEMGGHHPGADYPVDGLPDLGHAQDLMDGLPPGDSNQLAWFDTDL

Catenin beta-1 [9] = target: T1, Catenin beta-1; test: Inhibition of human wild-type beta-catenin (residues 138-686)/C-terminally fluorescein labeled human wild-type Tcf4 (residues 7-51) interaction after […] by FP competitive inhibition assay
Catenin beta-1 [10] = target: T1, Catenin beta-1; test: Inhibition of human wild-type beta-catenin (residues 138-686)/C-terminally fluorescein-labeled human E-cadherin (residues 819-873) interaction by FP competitive inhibition assay
SW480 [11] = test: Decrease in c-myc mRNA expression in human SW480 cells at 2 uM after 24 hrs by quantitative real-time PCR analysis; type: functional; conditions: SW480, 24 h
SW480 [12] = test: Effect on beta-catenin degradation in human SW480 cells assessed as beta-catenin protein expression after 24 hrs by western blot analysis; type: functional, cell-based
SW480 [13] = test: Decrease in AXIN2 mRNA expression in human SW480 cells at 2 uM after 24 hrs by quantitative real-time PCR analysis; type: functional; conditions: SW480, 24 h
SW480 [14] = test: Effect on HPRT mRNA expression in human SW480 cells after 24 hrs by quantitative real-time PCR analysis; type: functional, cell-based
SW480 [15] = test: Decrease in cyclin D1 mRNA expression in human SW480 cells at 2 uM after 24 hrs by quantitative real-time PCR analysis; type: functional; conditions: SW480, 24 h

Row | IC50 [1] | IC50 (HCT-116 [2]) | IC50 (SW480 [3]) | Compound | inhibition (HCT-116 [5]) | inhibition (SW480 [6]) | inhibition (HEK293) | other results
1 | > 100 µM | 22 µM | 38 µM | O=C(O)c1ccc2nc(-c3ccc(Cl)cc3)c(-c3ccc(Cl)cc3)nc2c1 | – | – | – | IC50 (HT-29): 41 µM
2 | – | 180 µM | 240 µM | COc1ccc(/C=C2/SC(=S)N(CCCC(=O)O)C2=O)cc1OC | – | – | – | IC50 (HT-29): 290 µM; IC50 [4]: 4 µM
3 | – | – | – | CCOC(=O)CCCn1c2ccccc2c2nc3nonc3nc21 | inactive | inactive | inactive | –
4 | > 100 µM | – | – | O=C(O)c1cc2nc(-c3ccc4c(c3)OCO4)c(-c3ccc4c(c3)OCO4)nc2cc1O | – | – | – | –
5 | – | – | – | Nc1nonc1NC(=O)Cn1c2ccccc2c2nc3nonc3nc21 | inactive | inactive | inactive | Ki [7]: 42 µM
6 | – | – | – | COc1c(C[C@@H](C)OC(=O)Oc2ccc(O)cc2)c2c3c(C[C@@H](C)OC(=O)c4ccccc4)c(OC)c(=O)c4c(O)cc(OC)c(c5c(OC)cc(O)c(c1=O)c52)c43 [CALPHOSTIN C] | – | – | – | IC50 (Catenin beta-1 [8]): 110 µM; IC50 (Catenin beta-1 [9]): 77 µM; IC50 (Catenin beta-1 [10]): 38 µM
7 | – | – | – | Nc1nonc1C(=O)N/N=C1/c2ccccc2-c2nc3nonc3nc21 | – | – | – | inhibition at 2 µM (SW480 [11]): > 50%; Activity (SW480 [12]): inactive; inhibition at 2 µM (SW480 [13]): > 50%; Activity (SW480 [14]): inactive; inhibition at 2 µM (SW480 [15]): > 50%
8 | 26 µM | 31 µM | > 200 µM | c1ccc2c(c1)c1nc3nonc3nc1n2CCc1nn[nH]n1 | – | – | – | Activity (SW480 [14]): inactive
9 | 39 µM | – | – | O=C(O)c1cc(-c2ccc(Oc3ccc(Cl)cc3)cc2)on1 | – | – | – | –
10 | – | – | – | COC(=O)CCn1c2ccccc2c2nc3nonc3nc21 | inactive | inactive | inactive | –
11 | – | 0.02 µM | 52 µM | N#CCCn1c2ccccc2c2nc3nonc3nc21 | – | – | – | –
12 | – | – | – | O=C(O)CCCn1c2ccccc2c2nc3nonc3nc21 | inactive | inactive | inactive | –

Row | Compound | IC50 [1] | IC50 (HCT-116 [2]) | IC50 (SW480 [3]) | inhibition (HCT-116 [5]) | inhibition (SW480 [6]) | inhibition (HEK293) | other results
13 | COc1c(C[C@H](C)O)c2c3c(C[C@H](C)O)c(OC)c(=O)c4c(O)cc5c(c6c(cc(O)c(c1=O)c62)OCO5)c43 | – | 1.2 µM | 5.5 µM | – | – | – | IC50 (HT-29): 1.8 µM
